This passage reports IC50 and inhibition results from ChEMBL document CHEMBL1135166, “Synthesis of triazole-Tethered pyrrolidine libraries: novel ECE inhibitors” (Bioorg Med Chem Lett, 2002).

The target in one assay is T1, Endothelin-converting enzyme 1 (Homo sapiens, UniProt P42892).
T1 sequence (P42892 whole entry): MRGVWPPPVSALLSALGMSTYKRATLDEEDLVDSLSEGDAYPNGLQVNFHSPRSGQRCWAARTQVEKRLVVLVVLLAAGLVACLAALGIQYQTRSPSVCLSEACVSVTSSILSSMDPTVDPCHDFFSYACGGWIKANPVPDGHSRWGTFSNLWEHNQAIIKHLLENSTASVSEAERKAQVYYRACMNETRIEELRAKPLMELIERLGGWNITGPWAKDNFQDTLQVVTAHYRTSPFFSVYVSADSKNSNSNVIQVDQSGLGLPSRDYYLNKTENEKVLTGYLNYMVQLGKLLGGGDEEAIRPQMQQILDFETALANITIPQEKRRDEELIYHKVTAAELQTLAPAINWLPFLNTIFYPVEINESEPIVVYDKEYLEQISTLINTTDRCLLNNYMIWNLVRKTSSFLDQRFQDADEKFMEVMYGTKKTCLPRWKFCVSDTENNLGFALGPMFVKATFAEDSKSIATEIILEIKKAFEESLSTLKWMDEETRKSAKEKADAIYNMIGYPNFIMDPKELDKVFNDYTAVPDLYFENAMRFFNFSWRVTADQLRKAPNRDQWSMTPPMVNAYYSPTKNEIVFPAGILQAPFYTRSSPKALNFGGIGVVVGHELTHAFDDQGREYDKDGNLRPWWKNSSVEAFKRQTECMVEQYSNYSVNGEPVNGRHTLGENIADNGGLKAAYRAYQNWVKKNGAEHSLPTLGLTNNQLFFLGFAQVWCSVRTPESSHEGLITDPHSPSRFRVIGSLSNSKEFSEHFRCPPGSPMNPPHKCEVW
The assay is described as follows: (§1) Tested for inhibitory concentration against human Endothelin-converting enzyme 1 at 10 uM.
For `CSc1nnc([C@@H]2C[C@@H](S)CN2S(=O)(=O)c2ccc3ccccc3c2)n1-c1ccc(C(F)(F)F)cc1`, the IC50 (as a rule, the concentration that inhibits the measured activity by half) is 0.36 µM.

`CSc1nnc([C@@H]2C[C@@H](S)CN2S(=O)(=O)c2ccc(F)cc2)n1-c1ccccc1` yielded an IC50 of 8.95 µM.

In turn, `CCCSc1nnc([C@@H]2C[C@@H](S)CN2S(=O)(=O)c2ccc3ccccc3c2)n1-c1ccccc1` yielded an IC50 of 0.28 µM.

For the compound `O=S(=O)(c1ccc2ccccc2c1)N1C[C@H](S)C[C@H]1c1nnc(SCC2CC2)n1-c1ccccc1`, the IC50 is 0.7 µM.

Regarding `CSc1nnc([C@@H]2C[C@@H](S)CN2S(=O)(=O)c2ccc3ccccc3c2)n1Cc1ccc(F)cc1`, the IC50 amounted to 0.15 µM. This IC50 lies about 4.7-fold lower than the previous one.

With `CC(C)CSc1nnc([C@@H]2C[C@@H](S)CN2S(=O)(=O)c2ccc3ccccc3c2)n1-c1ccccc1`, the IC50 came to 0.72 µM.

For the compound `CSc1nnc([C@@H]2C[C@@H](S)CN2S(=O)(=O)c2ccc(Cl)cc2)n1-c1ccccc1`, the IC50 was 1.2 µM.

Compound `CSc1nnc([C@@H]2C[C@@H](S)CN2S(=O)(=O)c2ccc(C)cc2)n1-c1ccccc1` yielded an IC50 of 4.4 µM.

Compound `CSc1nnc([C@@H]2C[C@@H](S)CN2C(=O)Nc2ccc(F)cc2)n1-c1ccccc1` displayed an IC50 of 17.7 µM.

`CSc1nnc([C@@H]2C[C@@H](S)CN2S(C)(=O)=O)n1-c1ccccc1` came in with a concentration for half-maximal inhibition (IC50) of 15.5 µM. This IC50 and that of the compound before are within 1.5-fold of each other.

In turn, `CSc1nnc([C@@H]2C[C@@H](S)CN2S(=O)(=O)c2ccc(C(F)(F)F)cc2)n1-c1ccccc1` yielded an IC50 of 1.3 µM.

Compound `CSc1nnc([C@@H]2C[C@@H](S)CN2S(=O)(=O)c2ccc3ccccc3c2)n1-c1ccccc1` yielded an IC50 of 0.5 µM.

`CCCCOC(=O)N1C[C@H](S)C[C@H]1c1nnc(SC)n1-c1ccccc1` showed an IC50 of 2.7 µM.

`CSc1nnc([C@@H]2C[C@@H](S)CN2S(=O)(=O)c2ccc3ccccc3c2)n1-c1ccc(F)c(Cl)c1`: the IC50 is 1.2 µM.

`CSc1nnc([C@@H]2C[C@@H](S)CN2S(=O)(=O)c2ccc3ccccc3c2)n1-c1c(F)c(F)cc(F)c1F` yielded an IC50 of 0.25 µM.

Consider `CCCc1ccc(S(=O)(=O)N2C[C@H](S)C[C@H]2c2nnc(SC)n2-c2ccccc2)cc1`, for which the IC50 turned out to be 1.2 µM.

The next assay addresses T2, Endothelin-converting enzyme 1 (Homo sapiens) (UniProt P42892).
T2 sequence (whole entry): T1 sequence (P42892 whole entry)
The description is as §1.
On to `CSc1nnc([C@@H]2C[C@@H](S)CN2S(=O)(=O)N(C)C)n1-c1ccccc1`, for which the inhibition (commonly the share of the control response that was lost under treatment) came to 28%.

With `CSc1nnc([C@@H]2C[C@@H](S)CN2S(=O)(=O)c2ccc3ccccc3c2)n1C`, the inhibition is 43%.
